“And” between values parts separate entries of the source, which are not always exact repeats. Equal values may be shown once.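 48-hour exposure; five concentrations; linearly interpolated endpoints. GI50 is the concentration that inhibits growth by half. At the TGI there is no net growth.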 Bounds are passed on as bounds.

Holding throughout (assay): NCI tumour cell line growth inhibition, 48 h
In test [1] the test system is RXF-631 renal.
Test [2] relates to KM20L2 colon.
Test [3] relates to P388/ADR leukemia.
Test [4] has as its system XF 498 CNS.
Test [5] deals with HOP-18 NSCLC.
Test [6] concerns SN12K1 renal.
The test system of test [7] is P388 leukemia.
Test [8] has as its system DMS 114 small cell lung.
Test [9] deals with MDA-N.
Test [10] has as its system M19-MEL melanoma.
Test [11] deals with DMS 273 small cell lung.
Test [12] has as its system LXFL 529 NSCLC.

On to `CC[C@](O)(C(=O)O)c1cc2n(c(=O)c1CO)Cc1cc3ccccc3nc1-2`, for which the TGI in [1] is 1.04 µM; in test [2], 3.96 µM; in test [3] it was 25.6 µM; in [4], 4.41 µM and 0.793 µM; in test [5], 4.88 µM; in test [6] it was 2.73 µM. For the same compound, the TGI is 0.294 µM in [7]; 1.11 µM and 0.412 µM in [8]; 0.605 µM in test [9]; 0.547 µM in [10]; 0.132 µM and 0.0963 µM in [11]. The GI50 in [2] is 0.209 µM; in test [4] it was 0.614 µM; in [11], 0.0316 µM.

As for `COc1ccc(-c2cc(-c3ccccc3)c(C#N)c(=O)[nH]2)cc1`, the TGI in test [1], in test [2], in test [5], in test [12], in test [8] and in test [10] was more than 100 µM throughout. This compound also returned a TGI in test [11] of more than 100 µM.

`O=C1c2c(c3c4ccccc4n4c3c3c2c2ccccc2n3C/C=C\C4)C(=O)N1Cc1ccccc1`: the TGI in test [2] was more than 100 µM; in test [4], 85.9 µM; in [5], more than 100 µM; in test [12] it was more than 100 µM; in [10], more than 100 µM.

In the case of `OCCc1cnco1`, the TGI in test [2], in test [5], in test [12], in test [8], in test [10] and in test [11] was more than 100 µM in each case.

As for `CN(C)c1nc(N(C)C)nc(N(C)CN(C)c2nc(N(C)C)nc(N(C)C)n2)n1`, the TGI in test [2], in [5], in [12], in [8], in [10] and in test [11] was more than 100 µM in each case.

For `OC(COc1ccc(Cl)cc1Cl)CN1CCCC1` (stereo unspecified), the TGI in test [9] was more than 100 µM.

Compound `COc1cc(C/C=C/c2ccccc2)c(OC)cc1O` gave a TGI in test [9] of 33.8 µM.

With `O=C1C2Cc3ccccc3CN2C(=O)N1CN1CCN(CN2C(=O)C3Cc4ccccc4CN3C2=O)CC1` (stereo unspecified), the TGI in test [1], in [2], in [5], in [8], in test [10] and in test [11] was more than 100 µM each time.

Regarding `CC1SC2=NC3=C(c4ccccc4C3=O)C(c3ccc(Br)cc3)N2C1=O` (stereo unspecified), the TGI in [2], in test [4], in test [12], in test [8], in test [10] and in [11] was more than 100 µM in each case.

For the compound `C#CCOCn1cnc2ncnc(Cl)c21`, the TGI in [1], in test [2], in [4], in [5], in test [12] and in test [8] was more than 100 µM throughout. Moreover, the TGI in [10] and in test [11] was more than 100 µM each time.

In [9], `CSc1nc(Cl)c(Br)c(Nc2c[nH]c(=O)[nH]c2=O)n1` registered a TGI of 46.9 µM.

As to `CC(C)C(/C=C/c1ccccc1)=N\NC(=O)N/N=C(/C=C/c1ccccc1)C(C)C`, the TGI in test [2] was 93.6 µM; in [4], 77.4 µM; in test [12], 75.3 µM; in test [8] it was 60.1 µM; in test [10], 76.9 µM; in test [11], 55.1 µM.

For the compound `N/C(=N\OC(=O)NC(Cl)=C(Cl)Cl)c1cc(C(F)(F)F)cc(C(F)(F)F)c1`, the TGI in test [9] is 59.5 µM.

Take `CC(=O)Nc1ccc(-c2nnc(SCC(=O)Nc3ccccc3[N+](=O)[O-])o2)cc1`: the TGI in test [2], in test [5], in [12], in [8], in [10] and in [11] was more than 100 µM throughout.

Regarding `CC1(C)CCc2cc3c(cc2O1)OC(C)(C)C1c2c(ccc4c2CCC(C)(C)O4)OC31` (stereo unspecified), the TGI in [4], in test [12], in test [8], in test [10] and in test [11] was more than 100 µM in each case.

Take `O=C(CCCn1ccnc1[N+](=O)[O-])NCCn1cnc([N+](=O)[O-])c1`: the TGI in test [9] was more than 100 µM.

Turning to `COc1ccc2oc(-c3ccncc3)cc(=O)c2c1`, the TGI in test [1], in test [4], in test [12], in [8] and in test [11] was more than 100 µM in each case.

As for `COc1ccc(CNc2nc3ccccc3nc2-c2cccs2)cc1OC`, the TGI is more than 100 µM in test [1]; more than 100 µM in [2]; 59.6 µM in [4]; more than 100 µM in [5]; more than 100 µM in test [12]; more than 100 µM in test [10]. Besides, in [11], the TGI is more than 100 µM.

Take `Cn1cc2ccccc2c1-c1nc(F)nc(Oc2ccc3c(c2)CC[C@@H]2C3CC[C@]3(C)C(O)CCC23)n1` (stereo partly specified): the TGI in [2] worked out at 36.9 µM; in test [5], 35.7 µM; in [12] it was 31.6 µM; in test [8], 37.8 µM; in test [10] it was 47.8 µM; in [11], 43.2 µM.

For the compound `CNC1=C(C)C(=O)C(C)=C(C(C)(C)CC(=O)n2cc(F)c(=O)[nH]c2=O)C1=O`, the TGI in test [1], in test [2], in test [4], in [5], in test [12] and in test [8] was more than 100 µM in each case. Moreover, the TGI in test [10] and in [11] was more than 100 µM in each case.

Values taken from PubChem BioAssay (NCI).
